From publication PMC8066402 (The AAPS journal, 2020)

Target: T1, Monocarboxylate transporter 1 (MCT1) (Mus musculus, UniProt P53986)
T1 sequence (P53986 1-493): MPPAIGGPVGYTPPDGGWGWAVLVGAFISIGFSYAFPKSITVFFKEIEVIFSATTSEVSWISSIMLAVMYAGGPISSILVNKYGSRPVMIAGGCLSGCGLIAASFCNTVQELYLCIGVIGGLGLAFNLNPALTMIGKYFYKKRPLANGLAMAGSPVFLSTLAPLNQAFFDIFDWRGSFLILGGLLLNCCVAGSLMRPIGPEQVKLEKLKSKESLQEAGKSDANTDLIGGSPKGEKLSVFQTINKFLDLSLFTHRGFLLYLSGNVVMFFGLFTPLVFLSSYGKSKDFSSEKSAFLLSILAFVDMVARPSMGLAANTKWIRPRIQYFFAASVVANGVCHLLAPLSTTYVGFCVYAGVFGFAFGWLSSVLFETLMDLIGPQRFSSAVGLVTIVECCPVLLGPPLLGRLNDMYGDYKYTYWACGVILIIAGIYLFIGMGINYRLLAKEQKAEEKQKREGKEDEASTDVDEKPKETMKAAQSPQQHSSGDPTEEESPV
T1 sequence (P18572 22-389 partner): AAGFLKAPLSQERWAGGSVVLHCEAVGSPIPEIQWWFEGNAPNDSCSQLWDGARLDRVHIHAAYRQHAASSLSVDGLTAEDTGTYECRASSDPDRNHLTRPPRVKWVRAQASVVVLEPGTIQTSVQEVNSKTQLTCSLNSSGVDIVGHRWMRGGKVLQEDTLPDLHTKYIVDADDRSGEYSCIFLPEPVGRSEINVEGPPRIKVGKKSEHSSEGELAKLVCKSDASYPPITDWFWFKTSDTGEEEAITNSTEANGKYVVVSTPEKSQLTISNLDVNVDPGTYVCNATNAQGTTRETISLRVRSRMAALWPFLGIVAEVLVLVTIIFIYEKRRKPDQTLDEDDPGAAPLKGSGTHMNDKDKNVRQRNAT
Test: inhibition of radiolabeled L-lactate uptake in 4T1 cells
Format: cell-based

Structure (SMILES)	IC50 [mM]
Cc1[nH]nc(C(F)(F)F)c1Cc1sc2c(c1C(=O)N1C[C@](C)(O)CO1)c(=O)n(C)c(=O)n2C(C)C [AZD3965]	1.7e-05 ± 3.6e-06
N#C/C(=C\c1ccc(O)cc1)C(=O)O [CHC, α-cyano-4-hydroxycinnamic acid]	7.57 ± 15.2
